US20060058312A1, “Stabilized aqueous preparation for injection” (priority 2004, published 2006)

Tests used:
[1] = Stability test at 60° C., effect of pH value without ascorbic acid (Example 3), HPLC content; assay type: physicochemical; details: no addition of ascorbic acid; for remaining calcium levofolinate content compared with the initial value (100): 60° C.
Method: (§1) For the aqueous preparations obtained in (1) to (3) above, tests evaluating stability at 60° C./3 weeks were performed. The calcium levofolinate content remaining in the aqueous solution was measured using high performance liquid chromatography under the following conditions (the same were employed in the following experiments) 2 ml each of the test preparations were weighed, and 10 ml of the internal standard solution described below (the same was employed in the following experiments) were added thereto. Subsequently, water was added to adjust the total volume of the solution to 50 ml, thereby to prepare a test solution. Meanwhile, 62.5 mg of calcium levofolinate were dissolved in water so as to prepare a 25 ml solution. Then, to 10 ml of the resultant solution were added 10 ml of the internal standard solution, and the total volume of the solution was adjusted to 50 ml by adding water, thereby to prepare a standard solution. For 20 μl of the standard solution and the test solution, the content of calcium levofolinate was measured by the liquid chromatography method under the following conditions.
(§2) 1) Measurement Conditions • Detector: Ultraviolet absorptiometer (Measurement wavelength: 254 nm) • Column: A stainless tube having an internal diameter of 4.0 mm and a length of 15 cm was filled with 5 μm of octadecylsilylated silica gel for liquid chromatography. • Column temperature: A constant temperature near 45° C. • Mobile phase: The pH value of a mixed test solution containing 0.008 mol/L of disodium hydrogen phosphate solution/methanol/40% aqueous tetrabutylammonium hydroxide solution (385:110:1.3 (volume ratio)) was adjusted to 7.5 by adding phosphoric acid. • Flow rate: The flow rate was regulated so that the retention time of calcium levofolinate became about 10 minutes. • Internal standard solution: A solution prepared by adding water to 0.04 g of methyl parahydroxybenzoate so that the whole amount of solution is 100 ml.
About 80 ml of water for injection were added to a beaker (volume: 200 ml). Then, 0.56 g of sodium chloride and 0.3 g of tromethamine were added to it with bubbling of nitrogen gas, and the components were dissolved with stirring and heating to 45 to 50° C. Subsequently, 1.375 g of calcium levofolinate (1.1 g, in terms of 5-formyl-(6S)-tetrahydrofolic acid) were added, and the components were dissolved with stirring. Thereafter, the pH value of the solution was adjusted to 6.0 by adding 5% hydrochloric acid solution dropwise. A similar procedure to the above was performed to produce solutions, each having a regulated pH value of 7.0, 7.5, 7.9, 8.1, 8.3, 8.7, 9.0, 9.2, and 9.5 (1% aqueous sodium hydroxide solution was used in place of 5% hydrochloric acid solution).
Water for injection was further added to each solution to adjust the total volume of the solution to 100 ml. Subsequently, the bubbling of nitrogen gas was stopped, and each solution was filtered with a filtration filter, thereby to yield a solution for injection. Subsequently, each of nine 5 ml-glass ampules the inside space of which had been substituted by nitrogen gas was filled with 5 ml of the resultant solution for injection, and was sealed by heating.
For each aqueous preparation obtained as above, a test evaluating stability at 60° C. was performed by measuring the remaining levofolinate content by the high performance liquid chromatography method. […] In the cases of pH 6 to 7 and pH 8.7 to pH 9, an extremely excellent stabilizing effect was confirmed.

[2] = Stability test at 60° C., effect of pH value with addition of ascorbic acid (Example 2), HPLC content; assay type: physicochemical
Method: as §1, §2
About 80 ml of water for injection were added to a beaker (volume: 200 ml). Then 0.56 g of sodium chloride, 0.3 g of tromethamine, and 0.5 g of ascorbic acid were added to it with bubbling of nitrogen gas, and the components were dissolved with stirring. Subsequently, to the resultant solution were added 1.375 g of calcium levofolinate (1.1 g, in terms of 5-formyl-(6S)-tetrahydrofolic acid), and the components were dissolved with stirring under heating to 45 to 50° C. Thereafter, the pH value of the solution was adjusted to 5.0 by adding 5% hydrochloric acid solution dropwise. A similar procedure to the above, except using 1% aqueous sodium hydroxide solution in place of 5% hydrochloric acid solution, was performed to produce solutions, each having a regulated pH value of 6.0, 7.0, 8.0, or 9.0. Water for injection was further added to each solution to adjust the total volume of the solution to 100 ml. Subsequently, the bubbling of nitrogen gas was stopped, and each solution was filtered with a filtration filter, thereby to yield a solution for injection. Subsequently, each of five 5 ml-glass ampules the inside space of which had been substituted by nitrogen gas, was filled with 5 ml of the resultant solution for injection, and was sealed by heating.
For each aqueous preparation obtained as above, a stability test at 60° C. was performed by measuring the remaining calcium levofolinate content by the high performance liquid chromatography method.

In the case of `Nc1nc(=O)c2c([nH]1)NC[C@H](CNc1ccc(C(=O)N[C@@H](CCC(=O)O)C(=O)O)cc1)N2C=O` [calcium levofolinate, (6S)-N-[4-[[(2-amino-5-formyl-1,4,5,6,7,8-hexahydro-4-oxo-6-pteridinyl)methyl]amino]benzoyl]-L-glutamic acid], the “remaining calcium levofolinate content compared with the initial value (100)” value ([1]; pH value 6.0, 1 month) is reported as 88.7, the “remaining calcium levofolinate content compared with the initial value (100)” value ([1]; pH value 6.0, 1 week) is reported as 94.7 and the “remaining calcium levofolinate content compared with the initial value (100)” value ([1]; pH value 6.0, 2 weeks) is reported as 92.5. The “remaining calcium levofolinate content compared with the initial value (100)” value ([1]; pH value 6.0, 3 weeks) was 90.1, the “calcium levofolinate content, Initial value (100)” value ([1]; pH value 6.0) was 100 and the “remaining calcium levofolinate content compared with the initial value (100)” value ([1]; pH value 7.0, 1 month) was 88.6. The “remaining calcium levofolinate content compared with the initial value (100)” value ([1]; pH value 7.0, 1 week) was 94.8, the “remaining calcium levofolinate content compared with the initial value (100)” value ([1]; pH value 7.0, 2 weeks) was 92.2 and the “remaining calcium levofolinate content compared with the initial value (100)” value ([1]; pH value 7.0, 3 weeks) was 90.1. For the same compound, the “calcium levofolinate content, Initial value (100)” value ([1]; pH value 7.0) was 100, the “remaining calcium levofolinate content compared with the initial value (100)” value ([1]; pH value 7.5, 1 month) was 84.2 and the “remaining calcium levofolinate content compared with the initial value (100)” value ([1]; pH value 7.5, 1 week) was 93.4. For the same compound, the “remaining calcium levofolinate content compared with the initial value (100)” value ([1]; pH value 7.5, 2 weeks) was 89.0, the “remaining calcium levofolinate content compared with the initial value (100)” value ([1]; pH value 7.5, 3 weeks) was 86.8 and the “calcium levofolinate content, Initial value (100)” value ([1]; pH value 7.5) was 100. For the same compound, the “remaining calcium levofolinate content compared with the initial value (100)” value ([1]; pH value 7.9, 1 month) was 81.9, the “remaining calcium levofolinate content compared with the initial value (100)” value ([1]; pH value 7.9, 1 week) was 95.1 and the “remaining calcium levofolinate content compared with the initial value (100)” value ([1]; pH value 7.9, 2 weeks) was 89.7. The “remaining calcium levofolinate content compared with the initial value (100)” value ([1]; pH value 7.9, 3 weeks) was 86.3, the “calcium levofolinate content, Initial value (100)” value ([1]; pH value 7.9) was 100 and the “remaining calcium levofolinate content compared with the initial value (100)” value ([1]; pH value 8.1, 1 week) was 95.4. The “remaining calcium levofolinate content compared with the initial value (100)” value ([1]; pH value 8.1, 2 weeks) was 91.5, the “remaining calcium levofolinate content compared with the initial value (100)” value ([1]; pH value 8.1, 3 weeks) was 85.6 and the “calcium levofolinate content, Initial value (100)” value ([1]; pH value 8.1) was 100. The “remaining calcium levofolinate content compared with the initial value (100)” value ([1]; pH value 8.3, 1 week) was 93.6, the “remaining calcium levofolinate content compared with the initial value (100)” value ([1]; pH value 8.3, 2 weeks) was 91.1 and the “remaining calcium levofolinate content compared with the initial value (100)” value ([1]; pH value 8.3, 3 weeks) was 85.5. The “calcium levofolinate content, Initial value (100)” value ([1]; pH value 8.3) was 100, the “remaining calcium levofolinate content compared with the initial value (100)” value ([1]; pH value 8.7, 1 week) was 94.7 and the “remaining calcium levofolinate content compared with the initial value (100)” value ([1]; pH value 8.7, 2 weeks) was 93.6. For the same compound, the “remaining calcium levofolinate content compared with the initial value (100)” value ([1]; pH value 8.7, 3 weeks) was 88.3, the “calcium levofolinate content, Initial value (100)” value ([1]; pH value 8.7) was 100 and the “remaining calcium levofolinate content compared with the initial value (100)” value ([1]; pH value 9.0, 1 week) was 96.1. For the same compound, the “remaining calcium levofolinate content compared with the initial value (100)” value ([1]; pH value 9.0, 2 weeks) was 93.3, the “remaining calcium levofolinate content compared with the initial value (100)” value ([1]; pH value 9.0, 3 weeks) was 88.6 and the “calcium levofolinate content, Initial value (100)” value ([1]; pH value 9.0) was 100. The “remaining calcium levofolinate content compared with the initial value (100)” value ([1]; pH value 9.2, 1 week) was 94.4, the “remaining calcium levofolinate content compared with the initial value (100)” value ([1]; pH value 9.2, 2 weeks) was 93.4 and the “remaining calcium levofolinate content compared with the initial value (100)” value ([1]; pH value 9.2, 3 weeks) was 87.7. For the same compound, the “calcium levofolinate content, Initial value (100)” value ([1]; pH value 9.2) was 100, the “remaining calcium levofolinate content compared with the initial value (100)” value ([1]; pH value 9.5, 1 week) was 93.7 and the “remaining calcium levofolinate content compared with the initial value (100)” value ([1]; pH value 9.5, 2 weeks) was 92.4. For the same compound, the “remaining calcium levofolinate content compared with the initial value (100)” value ([1]; pH value 9.5, 3 weeks) was 85.3, the “calcium levofolinate content, Initial value (100)” value ([1]; pH value 9.5) was 100 and the “remaining calcium levofolinate content compared with the initial value (100)” value ([2]; pH value 5.0, 60° C., 1 week) was 91.5. For the same compound, the “remaining calcium levofolinate content compared with the initial value (100)” value ([2]; pH value 5.0, 60° C., 2 weeks) was 87.5, the “remaining calcium levofolinate content compared with the initial value (100)” value ([2]; pH value 5.0, 60° C., 3 weeks) was 86.0 and the “calcium levofolinate content, Initial value (100)” value ([2]; pH value 5.0, Initial value) was 100. The “remaining calcium levofolinate content compared with the initial value (100)” value ([2]; pH value 6.0, 60° C., 1 week) was 95.8, the “remaining calcium levofolinate content compared with the initial value (100)” value ([2]; pH value 6.0, 60° C., 2 weeks) was 94.1 and the “remaining calcium levofolinate content compared with the initial value (100)” value ([2]; pH value 6.0, 60° C., 3 weeks) was 92.8. The “calcium levofolinate content, Initial value (100)” value ([2]; pH value 6.0, Initial value) was 100, the “remaining calcium levofolinate content compared with the initial value (100)” value ([2]; pH value 7.0, 60° C., 1 week) was 96.3 and the “remaining calcium levofolinate content compared with the initial value (100)” value ([2]; pH value 7.0, 60° C., 2 weeks) was 93.4. For the same compound, the “remaining calcium levofolinate content compared with the initial value (100)” value ([2]; pH value 7.0, 60° C., 3 weeks) was 92.5, the “calcium levofolinate content, Initial value (100)” value ([2]; pH value 7.0, Initial value) was 100 and the “remaining calcium levofolinate content compared with the initial value (100)” value ([2]; pH value 8.0, 60° C., 1 week) was 94.4. For the same compound, the “remaining calcium levofolinate content compared with the initial value (100)” value ([2]; pH value 8.0, 60° C., 2 weeks) was 89.2, the “remaining calcium levofolinate content compared with the initial value (100)” value ([2]; pH value 8.0, 60° C., 3 weeks) was 87.0 and the “calcium levofolinate content, Initial value (100)” value ([2]; pH value 8.0, Initial value) was 100. The “remaining calcium levofolinate content compared with the initial value (100)” value ([2]; pH value 9.0, 60° C., 1 week) was 95.7, the “remaining calcium levofolinate content compared with the initial value (100)” value ([2]; pH value 9.0, 60° C., 2 weeks) was 89.7 and the “remaining calcium levofolinate content compared with the initial value (100)” value ([2]; pH value 9.0, 60° C., 3 weeks) was 85.3. For the same compound, the “calcium levofolinate content, Initial value (100)” value ([2]; pH value 9.0, Initial value) was 100.
